# According to ChEMBL document CHEMBL2331530, “Novel 3-O-carbamoyl erythromycin A derivatives (carbamolides) with activity against resistant staphylococcal and streptococcal isolates” (2013):
# Key:
# Assay type in all cases: functional
# Staphylococcus aureus [1] = assay: Antibacterial activity against methicillin-resistant Staphylococcus aureus 1279-07-USA300 assessed as growth inhibition
# Staphylococcus aureus [2] = assay: Antibacterial activity against macrolides, lincosamides, streptogramin B and methicillin-resistant Staphylococcus aureus 1609-09 harboring cfr gene assessed as growth inhibition
# Staphylococcus aureus [3] = assay: Antibacterial activity against methicillin-resistant Staphylococcus aureus 2111-10-USA300 harboring cfr gene assessed as growth inhibition
# Staphylococcus aureus [4] = assay: Antibacterial activity against methicillin-resistant Staphylococcus aureus 1279-07 harboring cfr gene assessed as growth inhibition
# Staphylococcus aureus [5] = assay: Antibacterial activity against macrolides, lincosamides, streptogramin B and methicillin-resistant Staphylococcus aureus 1015-00 assessed as growth inhibition
# Staphylococcus aureus [6] = assay: Antibacterial activity against Staphylococcus aureus ATCC 29213 assessed as growth inhibition
# Streptococcus pneumoniae = assay: Antibacterial activity against macrolides, lincosamides, and streptogramin B-resistant Streptococcus pneumoniae 1243-00 assessed as growth inhibition
# [7] = system: Staphylococcus epidermidis; assay: Antibacterial activity against macrolides, lincosamides, streptogramin B and methicillin-resistant Staphylococcus epidermidis 1105-00 assessed as growth inhibition
# Streptococcus pyogenes = assay: Antibacterial activity against macrolides, lincosamides, and streptogramin B-resistant Streptococcus pyogenes 1304-00 assessed as growth inhibition
# Staphylococcus aureus [8] = assay: Antibacterial activity against methicillin-resistant Staphylococcus aureus 1281-07 harboring cfr gene assessed as growth inhibition
smiles,measurement,setting,value
CC[C@H]1OC(=O)[C@H](C)[C@@H](OC(=O)N2CC(C)(C)C[C@@H]2c2ccc(Cl)cc2)[C@H](C)[C@@H](O[C@@H]2O[C@H](C)C[C@H](N(C)C)[C@H]2O)[C@](C)(OC)C[C@@H](C)C(=O)[C@H](C)[C@H]2NC(=O)O[C@@]21C,MIC,Staphylococcus aureus [1],0.5 µg/mL
same,MIC,Staphylococcus aureus [2],> 64 µg/mL
same,MIC,Staphylococcus aureus [3],0.25 µg/mL
same,MIC,Staphylococcus aureus [4],0.25 µg/mL
same,MIC,Staphylococcus aureus [5],> 64 µg/mL
same,MIC,Staphylococcus aureus [6],0.25 µg/mL
same,MIC,Streptococcus pneumoniae,0.125 µg/mL
same,MIC,[7],64 µg/mL
same,MIC,Streptococcus pyogenes,0.125 µg/mL
same,MIC,Staphylococcus aureus [8],0.25 µg/mL
CC[C@H]1OC(=O)[C@H](C)[C@@H](OC(=O)N2CCC[C@H]2c2ccccc2)[C@H](C)[C@@H](O[C@@H]2O[C@H](C)C[C@H](N(C)C)[C@H]2O)[C@](C)(OC)C[C@@H](C)C(=O)[C@H](C)[C@H]2NC(=O)O[C@@]21C,MIC,Staphylococcus aureus [1],> 64 µg/mL
same,MIC,Staphylococcus aureus [2],> 64 µg/mL
same,MIC,Staphylococcus aureus [3],0.5 µg/mL
same,MIC,Staphylococcus aureus [4],> 64 µg/mL
same,MIC,Staphylococcus aureus [5],> 64 µg/mL
same,MIC,Staphylococcus aureus [6],2 µg/mL
same,MIC,Streptococcus pneumoniae,> 64 µg/mL
same,MIC,[7],> 64 µg/mL
same,MIC,Streptococcus pyogenes,> 64 µg/mL
same,MIC,Staphylococcus aureus [8],0.5 µg/mL
CC[C@H]1OC(=O)[C@H](C)[C@@H](OC(=O)N2CCC[C@@H]2c2ccccc2)[C@H](C)[C@@H](O[C@@H]2O[C@H](C)C[C@H](N(C)C)[C@H]2O)[C@](C)(OC)C[C@@H](C)C(=O)[C@H](C)[C@H]2NC(=O)O[C@@]21C,MIC,Staphylococcus aureus [1],> 64 µg/mL
same,MIC,Staphylococcus aureus [2],> 64 µg/mL
same,MIC,Staphylococcus aureus [3],> 64 µg/mL
same,MIC,Staphylococcus aureus [4],> 64 µg/mL
same,MIC,Staphylococcus aureus [5],> 64 µg/mL
same,MIC,Staphylococcus aureus [6],0.5 µg/mL
same,MIC,Streptococcus pneumoniae,> 64 µg/mL
same,MIC,[7],> 64 µg/mL
same,MIC,Streptococcus pyogenes,> 64 µg/mL
same,MIC,Staphylococcus aureus [8],0.25 µg/mL
CC[C@H]1OC(=O)[C@H](C)[C@@H](OC(=O)N2CCCC2)[C@H](C)[C@@H](O[C@@H]2O[C@H](C)C[C@H](N(C)C)[C@H]2O)[C@](C)(OC)C[C@@H](C)C(=O)[C@H](C)[C@H]2NC(=O)O[C@@]21C,MIC,Staphylococcus aureus [1],2 µg/mL
same,MIC,Staphylococcus aureus [2],16 µg/mL
same,MIC,Staphylococcus aureus [3],16 µg/mL
same,MIC,Staphylococcus aureus [4],16 µg/mL
same,MIC,Staphylococcus aureus [5],4 µg/mL
same,MIC,Staphylococcus aureus [6],4 µg/mL
same,MIC,Streptococcus pneumoniae,0.5 µg/mL
same,MIC,[7],1 µg/mL
same,MIC,Streptococcus pyogenes,0.5 µg/mL
same,MIC,Staphylococcus aureus [8],32 µg/mL
CC[C@H]1OC(=O)[C@H](C)[C@@H](OC(=O)N2CC(C)(C)C[C@@H]2c2cccc(Cl)c2Cl)[C@H](C)[C@@H](O[C@@H]2O[C@H](C)C[C@H](N(C)C)[C@H]2O)[C@](C)(OC)C[C@@H](C)C(=O)[C@H](C)[C@H]2NC(=O)O[C@@]21C,MIC,Staphylococcus aureus [1],2 µg/mL
same,MIC,Staphylococcus aureus [2],64 µg/mL
same,MIC,Staphylococcus aureus [3],0.5 µg/mL
same,MIC,Staphylococcus aureus [4],0.5 µg/mL
same,MIC,Staphylococcus aureus [5],32 µg/mL
same,MIC,Staphylococcus aureus [6],0.5 µg/mL
same,MIC,Streptococcus pneumoniae,1 µg/mL
same,MIC,[7],16 µg/mL
same,MIC,Streptococcus pyogenes,1 µg/mL
same,MIC,Staphylococcus aureus [8],0.25 µg/mL
CC[C@H]1OC(=O)[C@H](C)[C@@H](OC(=O)N2CC(C)(C)C[C@@H]2c2ccc(Cl)cc2Cl)[C@H](C)[C@@H](O[C@@H]2O[C@H](C)C[C@H](N(C)C)[C@H]2O)[C@](C)(OC)C[C@@H](C)C(=O)[C@H](C)[C@H]2NC(=O)O[C@@]21C,MIC,Staphylococcus aureus [1],0.5 µg/mL
same,MIC,Staphylococcus aureus [2],64 µg/mL
same,MIC,Staphylococcus aureus [3],0.25 µg/mL
same,MIC,Staphylococcus aureus [4],0.25 µg/mL
same,MIC,Staphylococcus aureus [5],32 µg/mL
same,MIC,Staphylococcus aureus [6],0.25 µg/mL
same,MIC,Streptococcus pneumoniae,0.015 µg/mL
same,MIC,[7],8 µg/mL
same,MIC,Streptococcus pyogenes,0.03 µg/mL
same,MIC,Staphylococcus aureus [8],0.25 µg/mL
CC[C@H]1OC(=O)[C@H](C)[C@@H](OC(=O)N2CC(C)(C)C[C@@H]2c2ccc(Cl)c(Cl)c2)[C@H](C)[C@@H](O[C@@H]2O[C@H](C)C[C@H](N(C)C)[C@H]2O)[C@](C)(OC)C[C@@H](C)C(=O)[C@H](C)[C@H]2NC(=O)O[C@@]21C,MIC,Staphylococcus aureus [1],2 µg/mL
same,MIC,Staphylococcus aureus [2],64 µg/mL
same,MIC,Staphylococcus aureus [3],0.25 µg/mL
same,MIC,Staphylococcus aureus [4],0.25 µg/mL
same,MIC,Staphylococcus aureus [5],64 µg/mL
same,MIC,Staphylococcus aureus [6],0.25 µg/mL
same,MIC,Streptococcus pneumoniae,0.125 µg/mL
same,MIC,[7],64 µg/mL
same,MIC,Streptococcus pyogenes,0.125 µg/mL
same,MIC,Staphylococcus aureus [8],0.25 µg/mL
CC[C@H]1OC(=O)[C@H](C)[C@@H](OC(=O)N2CC(C)(C)C[C@@H]2c2ccccc2Cl)[C@H](C)[C@@H](O[C@@H]2O[C@H](C)C[C@H](N(C)C)[C@H]2O)[C@](C)(OC)C[C@@H](C)C(=O)[C@H](C)[C@H]2NC(=O)O[C@@]21C,MIC,Staphylococcus aureus [1],2 µg/mL
same,MIC,Staphylococcus aureus [2],64 µg/mL
same,MIC,Staphylococcus aureus [3],0.25 µg/mL
same,MIC,Staphylococcus aureus [4],0.25 µg/mL
same,MIC,Staphylococcus aureus [5],64 µg/mL
same,MIC,Staphylococcus aureus [6],0.25 µg/mL
same,MIC,Streptococcus pneumoniae,0.25 µg/mL
same,MIC,[7],64 µg/mL
same,MIC,Streptococcus pyogenes,0.25 µg/mL
same,MIC,Staphylococcus aureus [8],0.25 µg/mL
CC[C@H]1OC(=O)[C@H](C)[C@@H](OC(=O)N2CC(C)(C)C[C@@H]2c2cccc(Cl)c2)[C@H](C)[C@@H](O[C@@H]2O[C@H](C)C[C@H](N(C)C)[C@H]2O)[C@](C)(OC)C[C@@H](C)C(=O)[C@H](C)[C@H]2NC(=O)O[C@@]21C,MIC,Staphylococcus aureus [1],0.25 µg/mL
same,MIC,Staphylococcus aureus [2],> 64 µg/mL
same,MIC,Staphylococcus aureus [3],0.25 µg/mL
same,MIC,Staphylococcus aureus [4],0.25 µg/mL
same,MIC,Staphylococcus aureus [5],> 64 µg/mL
same,MIC,Staphylococcus aureus [6],0.25 µg/mL
same,MIC,Streptococcus pneumoniae,0.03 µg/mL
same,MIC,[7],64 µg/mL
same,MIC,Streptococcus pyogenes,0.03 µg/mL
same,MIC,Staphylococcus aureus [8],0.125 µg/mL
CC[C@H]1OC(=O)[C@H](C)[C@@H](OC(=O)N2CC(C)(C)C[C@@H]2c2cccc3c2OCO3)[C@H](C)[C@@H](O[C@@H]2O[C@H](C)C[C@H](N(C)C)[C@H]2O)[C@](C)(OC)C[C@@H](C)C(=O)[C@H](C)[C@H]2NC(=O)O[C@@]21C,MIC,Staphylococcus aureus [1],0.5 µg/mL
same,MIC,Staphylococcus aureus [2],> 64 µg/mL
same,MIC,Staphylococcus aureus [3],0.125 µg/mL
same,MIC,Staphylococcus aureus [4],0.125 µg/mL
same,MIC,Staphylococcus aureus [5],64 µg/mL
same,MIC,Staphylococcus aureus [6],0.125 µg/mL
same,MIC,Streptococcus pneumoniae,0.03 µg/mL
same,MIC,[7],16 µg/mL
same,MIC,Streptococcus pyogenes,0.03 µg/mL
same,MIC,Staphylococcus aureus [8],0.125 µg/mL
CC[C@H]1OC(=O)[C@H](C)[C@@H](OC(=O)N2CC(C)(C)C[C@@H]2c2ccc3c(c2)OCO3)[C@H](C)[C@@H](O[C@@H]2O[C@H](C)C[C@H](N(C)C)[C@H]2O)[C@](C)(OC)C[C@@H](C)C(=O)[C@H](C)[C@H]2NC(=O)O[C@@]21C,MIC,Staphylococcus aureus [1],4 µg/mL
same,MIC,Staphylococcus aureus [2],> 64 µg/mL
same,MIC,Staphylococcus aureus [3],0.25 µg/mL
same,MIC,Staphylococcus aureus [4],0.25 µg/mL
same,MIC,Staphylococcus aureus [5],> 64 µg/mL
same,MIC,Staphylococcus aureus [6],0.25 µg/mL
same,MIC,Streptococcus pneumoniae,0.5 µg/mL
same,MIC,[7],> 64 µg/mL
same,MIC,Streptococcus pyogenes,2 µg/mL
same,MIC,Staphylococcus aureus [8],0.25 µg/mL
CC[C@H]1OC(=O)[C@H](C)[C@@H](OC(=O)N2CC(C)(C)C[C@@H]2c2cccnc2)[C@H](C)[C@@H](O[C@@H]2O[C@H](C)C[C@H](N(C)C)[C@H]2O)[C@](C)(OC)C[C@@H](C)C(=O)[C@H](C)[C@H]2NC(=O)O[C@@]21C,MIC,Staphylococcus aureus [1],> 64 µg/mL
same,MIC,Staphylococcus aureus [2],> 64 µg/mL
same,MIC,Staphylococcus aureus [5],> 64 µg/mL
same,MIC,Staphylococcus aureus [6],4 µg/mL
same,MIC,Streptococcus pneumoniae,0.03 µg/mL
same,MIC,[7],16 µg/mL
same,MIC,Streptococcus pyogenes,0.03 µg/mL
CC[C@H]1OC(=O)[C@H](C)[C@@H](OC(=O)N2CCC[C@@H]2c2cccnc2)[C@H](C)[C@@H](O[C@@H]2O[C@H](C)C[C@H](N(C)C)[C@H]2O)[C@](C)(OC)C[C@@H](C)C(=O)[C@H](C)[C@H]2NC(=O)O[C@@]21C,MIC,Staphylococcus aureus [1],16 µg/mL
same,MIC,Staphylococcus aureus [2],> 64 µg/mL
same,MIC,Staphylococcus aureus [3],0.25 µg/mL
same,MIC,Staphylococcus aureus [4],16 µg/mL
same,MIC,Staphylococcus aureus [5],> 64 µg/mL
same,MIC,Staphylococcus aureus [6],0.25 µg/mL
same,MIC,Streptococcus pneumoniae,0.5 µg/mL
same,MIC,[7],> 64 µg/mL
same,MIC,Streptococcus pyogenes,0.5 µg/mL
same,MIC,Staphylococcus aureus [8],0.125 µg/mL
CC[C@H]1OC(=O)[C@H](C)[C@@H](O[C@H]2C[C@@](C)(OC)[C@@H](O)[C@H](C)O2)[C@H](C)[C@@H](O[C@@H]2O[C@H](C)C[C@H](N(C)C)[C@H]2O)[C@](C)(OC)C[C@@H](C)C(=O)[C@H](C)[C@@H](O)[C@]1(C)O [CLARITHROMYCIN],MIC,Staphylococcus aureus [1],1 µg/mL
same,MIC,Staphylococcus aureus [2],16 µg/mL
same,MIC,Staphylococcus aureus [3],0.5 µg/mL
same,MIC,Staphylococcus aureus [4],0.5 µg/mL
same,MIC,Staphylococcus aureus [5],16 µg/mL
same,MIC,Staphylococcus aureus [6],0.5 µg/mL
same,MIC,Streptococcus pneumoniae,0.125 µg/mL
same,MIC,[7],8 µg/mL
same,MIC,Streptococcus pyogenes,0.25 µg/mL
same,MIC,Staphylococcus aureus [8],0.25 µg/mL
CC(=O)NC[C@H]1CN(c2ccc(N3CCOCC3)c(F)c2)C(=O)O1 [LINEZOLID],MIC,Staphylococcus aureus [1],1 µg/mL
same,MIC,Staphylococcus aureus [2],8 µg/mL
same,MIC,Staphylococcus aureus [3],0.5 µg/mL
same,MIC,Staphylococcus aureus [4],0.5 µg/mL
same,MIC,Staphylococcus aureus [5],8 µg/mL
same,MIC,Staphylococcus aureus [6],0.5 µg/mL
same,MIC,Streptococcus pneumoniae,0.125 µg/mL
same,MIC,[7],8 µg/mL
same,MIC,Streptococcus pyogenes,0.125 µg/mL
same,MIC,Staphylococcus aureus [8],0.5 µg/mL
